Our source for the inhibition and IC50 values is ChEMBL document CHEMBL3046728, “Modifications to five-substituted 3,3-diethyl-4,5-dihydro-2(3H)-furanones en route to novel muscarinic receptor ligands” (Med Chem Res, 2011).

Molecules are shown by their SMILES.

Test [1] concerns the target Muscarinic acetylcholine receptor (Rattus norvegicus) (UniProt P08482+P08483+P08485+P08911+P10980). The test is described as follows: Displacement of [3H]-QNB from muscarnic receptor in Rattus norvegicus (rat) cerebral cortex at 10 uM after 90 min by scintillation counting analysis. The test is classed as tissue-based. For orientation: Displacement assays read how much labelled ligand stays bound in the presence of the test substance.

Test [2] addresses Muscarinic acetylcholine receptor. The test can be described thus: Displacement of [3H]-QNB from muscarnic receptor in Rattus norvegicus (rat) cerebral cortex after 90 min by scintillation counting analysis. Type of test: tissue-based.

Usually inhibition stands for the drop in the measured response relative to a control, in per cent. In test [1], `CCC1(CC)CC(CN2CCN(c3ccc(OC)cc3)CC2)OC1=O` (stereo unspecified) gave an inhibition of 26%.

What is called IC50 is the concentration that gives 50% inhibition. A high value points to weaker potency. Compound `CCC1(CC)CC(CN2CCN(C(c3ccccc3)c3ccccc3)CC2)OC1=O` (stereo unspecified) yielded an inhibition in test [1] of 97%. Besides, the IC50 in test [2] was determined as 340 nM.

`CCC1(CC)CC(CN2CCC(c3ccccc3)CC2)OC1=O` (stereo unspecified) came in with an inhibition in test [1] of 68%.

In turn, `CCC1(CC)CC(CN2CCN(c3ccccc3)CC2)OC1=O` (stereo unspecified) had an inhibition in test [1] of 16%.

In the case of `CCC1(CC)CC(CN2CCC(c3nc4ccccc4[nH]3)CC2)OC1=O` (stereo unspecified), the inhibition in test [1] came to 46%.

`CCC1(CC)CC(CN2CCN(c3cccc(OC)c3)CC2)OC1=O` (stereo unspecified) registered an inhibition in test [1] of 9%.

`CCC1(CC)CC(CN2CCN(c3ccc([N+](=O)[O-])cc3)CC2)OC1=O` (stereo unspecified) had an inhibition in test [1] of 18%.

With `CCC1(CC)CC(COC(=O)Nc2ccc(N3CCCCC3)cc2)OC1=O` (stereo unspecified), the inhibition in test [1] worked out at 31%.

`CCC1(CC)CC(CN2CCN(c3ccc(O)cc3)CC2)OC1=O` (stereo unspecified) came in with an inhibition in test [1] of 7%.

As to `CCC1(CC)CC(CN2CCN(c3ccc(C#N)cc3)CC2)OC1=O` (stereo unspecified), the inhibition in test [1] stood at 18%.

For the compound `CCC1(CC)CC(CN2CCN(c3ccccc3O)CC2)OC1=O` (stereo unspecified), the inhibition in test [1] turned out to be 46%.

As for `CCC1(CC)CC(CN2CCN(c3ccccc3OC)CC2)OC1=O` (stereo unspecified), the inhibition in test [1] was found to be 32%.

In the case of `CCC1(CC)CC(CN2CCc3ccccc3C2)OC1=O` (stereo unspecified), the inhibition in test [1] was 44%.

In turn, `CCC1(CC)CC(CN2CCN(c3ccccc3C#N)CC2)OC1=O` (stereo unspecified) returned an inhibition in test [1] of 31%.

In test [1], `CCC1(CC)CC(CN2CCN(C(=O)c3ccccc3)CC2)OC1=O` (stereo unspecified) came in with an inhibition of 5%.
